Reference: US10508092B2, “Synthesis of novel analogs of diptoindonesin G, compounds formed thereby, and pharmaceutical compositions containing them” (Wisconsin Alumni Research Foundation, priority 2016, dated 2019)
“And” between values parts separate entries of the source, which are not always exact repeats. Equal values may be shown once.

What was measured:
[1] = tested on: estrogen receptor β (ERβ); assay: Western blot of FLAG-ERβ levels in Hs578T-ERβLuc Dox-inducible cells; type: cell-based, human; conditions: Hs578T-ERβLuc Dox-inducible line, 10 μM, 5 days, Western blot (anti-FLAG)
Method: FIGS. 2A, 2B, and 2C together depict the biological activity of the subject compounds on estrogen receptor β (ERβ) levels in human breast cancer cells.
The biological activity of these four analogs were then compared with the parent compound Dip G following our previous protocol (Zhao et al., supra). See FIGS. 1A, 1B, 1C, 2A, 2B, and 2C. Cells were treated with each compound at 10 μM concentration in order to evaluate how well each modified the stability of ERα and ERβ.
MCF7 cells were treated with Dip G and analogs for 24 hours before harvesting. Hs578T-tet-on-ERβ cells (ATCC HTB-126; American Type Culture Collection, Manassas, Va.) were treated with doxycycline for 24 hours to induce ERβ expression. Then the cells were treated with compounds for 5 days before harvesting. 15 μg of total cell lysates were resolved on SDS-PAGE and Western blot analyses were performed as previously described using ERα antibody (HC-20, Santa Cruz Biotechnology, Inc., Dallas, Tex.) and anti-FLAG antibody (F7425, Sigma-Aldrich Co., LLC, St. Louis, Mo.) for ERβ.^3

[2] = patients, high dose administration of fulvestrant (500 mg); cited from earlier work

Row | melting point | SMILES | ERβ stability [1] | peak plasma concentration [2]
1 | > 260 °C | O=C1c2c(O)cc(O)cc2-c2c(-c3ccccc3)oc3cc(O)cc1c23 [Compound 14] | moderately stabilized | 
2 |  | C[C@]12CC[C@@H]3c4ccc(O)cc4C[C@@H](CCCCCCCCC[S+]([O-])CCCC(F)(F)C(F)(F)F)[C@H]3[C@@H]1CC[C@@H]2O (stereo partly drawn) [fulvestrant] |  | ~20 ng/ml and ~30 nM
